One assay deals with Human Factor D (Homo sapiens (Human), UniProt P00746). The experiment in a line: Human Factor D Assay. It is filed as biochemical.
Chain of Human Factor D (P00746 26-253): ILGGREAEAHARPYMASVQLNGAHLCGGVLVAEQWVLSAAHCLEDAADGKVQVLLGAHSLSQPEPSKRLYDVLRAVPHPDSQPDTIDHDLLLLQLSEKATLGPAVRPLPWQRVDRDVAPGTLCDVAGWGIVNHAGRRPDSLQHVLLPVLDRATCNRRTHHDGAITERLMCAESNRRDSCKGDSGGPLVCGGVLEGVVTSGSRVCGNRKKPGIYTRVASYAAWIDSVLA
Details: not given
The procedure: Human Factor D (purified from human serum, Complement Technology, Inc.) at 80 nM final concentration was incubated with test compound at various concentrations for 5 minutes at room temperature in 50 mM Tris, 1M NaCl, pH 7.5. A synthetic substrate Z-L-Lys-SBzl and DTNB (Ellman's reagent) are added to final concentrations of 100 μM each. […] IC50 values are calculated by nonlinear regression of complement Factor D reaction rates as a function of test compound concentration.
What is called IC50 is the concentration that gives 50% inhibition. On to `CC(=O)c1cn(CC(=O)N2C[C@H](F)C[C@H]2C(=O)NCc2cccnc2)c2ccc(-c3ccnnc3)cc12` [Compound 59, (2S,4R)-1-(2-(3-acetyl-5-(pyridazin-4-yl)-1H-indol-1-yl)acetyl)-4-fluoro-N-(pyridin-3-ylmethyl) pyrrolidine-2-carboxamide], for which the half-maximal inhibitory concentration (IC50) lay within 1 to 10 µM.

The same assay, now with this note: Human Factor D 80 nM, substrate Z-L-Lys-SBzl; read-out: IC50.
For the molecule `Cc1nc2sccn2c1-c1csc(NC(=O)[C@@H]2C[C@@H](F)CN2C(=O)Cn2nc(C(N)=O)c3cc(-c4ccnnc4)ccc32)n1` [Compound 58, 1-(2-((2S,4R)-4-fluoro-2-(4-(6-methylimidazo[2,1-b]thiazol-5-yl)thiazol-2-ylcarbamoyl)pyrrolidin-1-yl)-2-oxoethyl)-5-(pyridazin-4-yl)-1H-indazole-3-carboxamide], the IC50 is greater than 10 µM.

In the case of `CC(=O)c1cn(CC(=O)N2C[C@H](F)C[C@H]2C(=O)Nc2ccc(CNC(=O)OCC3c4ccccc4-c4ccccc43)cc2)c2ccc(-c3ccnnc3)cc12` [Compound 61], the IC50 is greater than 10 µM.

Turning to `NC(=O)c1nn(CC(=O)N2C[C@H](F)C[C@H]2C(=O)NCc2cc(F)cc(Cl)c2)c2ccc(-c3ccnnc3)cc12` [Compound 62, 1-(2-((2S,4R)-2-(3-chloro-5-fluorobenzyl-carbamoyl)-4-fluoropyrrolidin-1-yl)-2-oxoethyl)-5-(pyridazin-4-yl)-1H-indazole-3-carboxamide], the IC50 was less than 1 µM.

Consider `CC(=O)c1cn(CC(=O)N2C[C@H](F)C[C@H]2C(=O)Nc2ccccc2N2CCOC2=O)c2ccc(-c3ccnnc3)cc12` [Compound 64, (2S,4R)-1-(2-(3-acetyl-5-(pyridazin-4-yl)-1H-indol-1-yl)acetyl)-4-fluoro-N-(2-(2-oxooxazolidin-3-yl)phenyl) pyrrolidine-2-carboxamide], for which the IC50 is greater than 10 µM.

Turning to `NC(=O)c1nn(CC(=O)N2C[C@H](F)C[C@H]2C(=O)Nc2ccccc2N2CCOC2=O)c2ccc(-c3ccnnc3)cc12` [Compound 65, 1-(2-((2S,4R)-4-fluoro-2-(2-(2-oxooxazolidin-3-yl)phenylcarbamoyl)pyrrolidin-1-yl)-2-oxoethyl)-5-(pyridazin-4-yl)-1H-indazole-3-carboxamide], the IC50 was greater than 10 µM.

For the molecule `CC(=O)c1cn(CC(=O)N2C[C@H](F)C[C@H]2C(=O)Nc2cncc(Cl)c2)c2ccc(-c3ccnnc3)cc12` [Compound 66, (2S,4R)-1-(2-(3-acetyl-5-(pyridazin-4-yl)-1H-indol-1-yl)acetyl)-N-(5-chloropyridin-3-yl)-4-fluoropyrrolidine-2-carboxamide], the IC50 was less than 1 µM.

As to `CC(=O)c1cn(CC(=O)N2C[C@H](F)C[C@H]2C(=O)Nc2cncc(Br)c2)c2ccc(-c3ccnnc3)cc12` [Compound 68, (2S,4R)-1-(2-(3-acetyl-5-(pyridazin-4-yl)-1H-indol-1-yl)acetyl)-N-(5-bromopyridin-3-yl)-4-fluoropyrrolidine-2-carboxamide], the IC50 was less than 1 µM.

As to `NC(=O)c1nn(CC(=O)N2C[C@H](F)C[C@H]2C(=O)Nc2nnc(-c3ccc(Cl)c(Cl)c3)s2)c2ccc(-c3ccnnc3)cc12` [Compound 69, 1-(2-((2S,4R)-2-(5-(3,4-dichlorophenyl)-1,3,4-thiadiazol-2-ylcarbamoyl)-4-fluoropyrrolidin-1-yl)-2-oxoethyl)-5-(pyridazin-4-yl)-1H-indazole-3-carboxamide], the IC50 was greater than 10 µM.

With `NCc1ccc(NC(=O)[C@@H]2C[C@@H](F)CN2C(=O)Cn2nc(C(N)=O)c3cc(-c4ccnnc4)ccc32)cc1` [Compound 70, 1-(2-((2S,4R)-2-(4-(aminomethyl)phenylcarbamoyl)-4-fluoropyrrolidin-1-yl)-2-oxoethyl)-5-(pyridazin-4-yl)-1H-indazole-3-carboxamide], the IC50 was greater than 10 µM.

For the molecule `Cc1ccnn1-c1ccccc1NC(=O)[C@@H]1C[C@@H](F)CN1C(=O)Cn1nc(C(N)=O)c2cc(-c3ccnnc3)ccc21` [Compound 71, 1-(2-((2S,4R)-4-fluoro-2-(2-(5-methyl-1H-pyrazol-1-yl)phenylcarbamoyl)pyrrolidin-1-yl)-2-oxoethyl)-5-(pyridazin-4-yl)-1H-indazole-3-carboxamide], the IC50 is greater than 10 µM.

As for `CC(=O)c1cn(CC(=O)N2C[C@H](F)C[C@H]2C(=O)Nc2ccccc2-n2nccc2C)c2ccc(-c3ccnnc3)cc12` [Compound 72, (2S,4R)-1-(2-(3-acetyl-5-(pyridazin-4-yl)-1H-indol-1-yl)acetyl)-4-fluoro-N-(2-(5-methyl-1H-pyrazol-1-yl)phenyl) pyrrolidine-2-carboxamide], the IC50 was greater than 10 µM.

As to `NC(=O)c1nn(CC(=O)N2C[C@H](F)C[C@H]2C(=O)Nc2cccc(OCc3ccccc3)n2)c2ccc(-c3ccnnc3)cc12` [Compound 73, 1-(2-((2S,4R)-2-(6-(benzyloxy)pyridin-2-ylcarbamoyl)-4-fluoropyrrolidin-1-yl)-2-oxoethyl)-5-(pyridazin-4-yl)-1H-indazole-3-carboxamide], the IC50 was greater than 10 µM.

Turning to `CC(=O)c1cn(CC(=O)N2C[C@H](F)C[C@H]2C(=O)N[C@H]2CCCC[C@@H]2OCc2ccccc2)c2ccc(-c3ccnnc3)cc12` [Compound 74, (2S,4R)-1-(2-(3-acetyl-5-(pyridazin-4-yl)-1H-indol-1-yl)acetyl)-N-((1S,2S)-2-(benzyloxy)cyclohexyl)-4-fluoropyrrolidine-2-carboxamide], the IC50 was greater than 10 µM.

Take `CC(=O)c1cn(CC(=O)N2C[C@H](F)C[C@H]2C(=O)Nc2ccc3c(c2)OC(C)(C)C3)c2ccc(-c3ccnnc3)cc12` [Compound 75, (2S,4R)-1-(2-(3-acetyl-5-(pyridazin-4-yl)-1H-indol-1-yl)acetyl)-N-(2,2-dimethyl-2,3-dihydrobenzofuran-6-yl)-4-fluoropyrrolidine-2-carboxamide]: the IC50 is less than 1 µM.

Take `CC1(C)Cc2ccc(NC(=O)[C@@H]3C[C@@H](F)CN3C(=O)Cn3nc(C(N)=O)c4cc(-c5ccnnc5)ccc43)cc2O1` [Compound 76, 1-(2-((2S,4R)-2-(2,2-dimethyl-2,3-dihydrobenzofuran-6-ylcarbamoyl)-4-fluoropyrrolidin-1-yl)-2-oxoethyl)-5-(pyridazin-4-yl)-1H-indazole-3-carboxamide]: the IC50 was less than 1 µM.

In the case of `CC(=O)c1cn(CC(=O)N2C[C@H](F)C[C@H]2C(=O)N[C@H]2CCC[C@@H]2OCc2ccccc2)c2ccc(-c3ccnnc3)cc12` [Compound 77, (2S,4R)-1-(2-(3-acetyl-5-(pyridazin-4-yl)-1H-indol-1-yl)acetyl)-N-((1S,2S)-2-(benzyloxy)cyclopentyl)-4-fluoropyrrolidine-2-carboxamide], the IC50 was greater than 10 µM.

With `NC(=O)c1nn(CC(=O)N2C[C@H](F)C[C@H]2C(=O)N[C@H]2CCCC[C@@H]2OCc2ccccc2)c2ccc(-c3ccnnc3)cc12` [Compound 78, 1-(2-((2S,4R)-2-((1S,2S)-2-(benzyloxy)cyclohexyl-carbamoyl)-4-fluoropyrrolidin-1-yl)-2-oxoethyl)-5-(pyridazin-4-yl)-1H-indazole-3-carboxamide], the IC50 was greater than 10 µM.

With `CNC(=O)[C@@H]1C[C@@H](F)CN1C(=O)Cn1nc(C(N)=O)c2cc(-c3ccnnc3)ccc21` [Compound 79, 1-(2-((2S,4R)-4-fluoro-2-(methylcarbamoyl)pyrrolidin-1-yl)-2-oxoethyl)-5-(pyridazin-4-yl)-1H-indazole-3-carboxamide], the IC50 was greater than 10 µM.

Take `COc1ncc(-c2ccc3c(c2)c(C(C)=O)cn3CC(=O)N2[C@@H]3C[C@@H]3C[C@H]2C(=O)Nc2cccc(-c3ccccc3Cl)c2F)cn1` [Compound 80, (1R,3S,5R)-2-(2-(3-acetyl-5-(2-methoxypyrimidin-5-yl)-1H-indol-1-yl)acetyl)-N-(2′-chloro-2-fluorobiphenyl-3-yl)-2-azabicyclo[3.1.0] hexane-3-carboxamide]: the IC50 is less than 1 µM.

Consider `COc1ncc(-c2ccc3c(c2)c(C(C)=O)cn3CC(=O)N2[C@@H]3C[C@@H]3C[C@H]2C(=O)Nc2cccc(Br)n2)cn1` [Compound 81, (1R,3S,5R)-2-(2-(3-acetyl-5-(2-methoxypyrimidin-5-yl)-1H-indol-1-yl)acetyl)-N-(6-bromopyridin-2-yl)-2-azabicyclo[3.1.0] hexane-3-carboxamide], for which the half-maximal inhibitory concentration (IC50) was less than 1 µM.

Turning to `CC(=O)c1cn(CC(=O)N2C[C@H](F)C[C@H]2C(=O)Nc2cccc(Br)n2)c2ccc(-c3cnc(C#N)nc3)cc12` [Compound 82, (2S,4R)-1-(2-(3-acetyl-5-(2-cyanopyrimidin-5-yl)-1H-indol-1-yl)acetyl)-N-(6-bromopyridin-2-yl)-4-fluoropyrrolidine-2-carboxamide], the half-maximal inhibitory concentration (IC50) was less than 1 µM.

Take `CC(=O)c1cn(CC(=O)N2C[C@H](F)C[C@H]2C(=O)Nc2cccc(Br)n2)c2ccc(-c3cnc(F)nc3)cc12` [Compound 83, (2S,4R)-1-(2-(3-acetyl-5-(2-fluoropyrimidin-5-yl)-1H-indol-1-yl)acetyl)-N-(6-bromopyridin-2-yl)-4-fluoropyrrolidine-2-carboxamide]: the IC50 is less than 1 µM.

Turning to `CC(=O)c1cn(CC(=O)N2C[C@H](F)C[C@H]2C(=O)Nc2cccc(Br)n2)c2ccc(-c3cnc(C)nc3)cc12` [Compound 84, (2S,4R)-1-(2-(3-acetyl-5-(2-methylpyrimidin-5-yl)-1H-indol-1-yl)acetyl)-N-(6-bromopyridin-2-yl)-4-fluoropyrrolidine-2-carboxamide], the IC50 was less than 1 µM.

Take `CC(=O)c1cn(CC(=O)N2C[C@H](F)C[C@H]2C(=O)Nc2ccc(CN)cc2)c2ccc(-c3ccnnc3)cc12` [Compound 85, (2S,4R)-1-(2-(3-acetyl-5-(pyridazin-4-yl)-1H-indol-1-yl)acetyl)-N-(4-(aminomethyl)phenyl)-4-fluoropyrrolidine-2-carboxamide]: the IC50 is greater than 10 µM.

Regarding `NC(=O)c1nn(CC(=O)N2C[C@H](F)C[C@H]2C(=O)Nc2ccc3cn[nH]c3c2)c2ccc(-c3ccnnc3)cc12` [Compound 86, 1-(2-((2S,4R)-2-(1H-indazol-6-ylcarbamoyl)-4-fluoropyrrolidin-1-yl)-2-oxoethyl)-5-(pyridazin-4-yl)-1H-indazole-3-carboxamide], the IC50 was greater than 10 µM.

(Values after patent publication US10287301B2 (Achillion Pharmaceuticals, Inc., priority 2015, dated 2019).)
